Test results reported in patent publication US20180177749A1, “USE OF CYP EXPRESSION TO DIRECT THERAPEUTIC INTERVENTION IN CANCER” (REGENTS OF THE UNIVERSITY OF MINNESOTA, priority 2016, published 2018).

Tested on: MDA-MB-231 xenograft
Assay: RPPA of protein expression, MDA-MB-231 xenograft endpoint analysis
Assay type: in vivo, nude mice
Conditions: 4 mg/kg/day vs. PBS
Protocol: Frozen xenograft tissue samples were embedded in OCT, and 8 μm sections were obtained using a cryostat. […] The resulting whole tissue lysates were boiled for 8 min at 100° C. and then printed onto a nitrocellulose slide (Avid, Grace Biolabs) along with a BSA protein concentration curve to estimate total protein concentration in each lysate. Total protein levels were assessed in each sample by staining with Sypro Ruby Protein Blot Stain (Invitrogen) according to manufacturer's instructions.
The total protein concentration in each sample was estimated by printing onto a nitrocellulose slide along with a BSA standard concentration curve, and total protein levels were assessed by staining with Sypro Ruby Protein Blot Stain (Invitrogen) according to manufacturer's instructions. Tissue lysates were diluted to 250 μg/ml in extraction buffer and stored at −80° C. prior to printing of arrays. RPPA printing and analysis of xenograft samples was conducted as previously described (Wulfkuhle et al., Clin Cancer Res. 2012; 18:6426-35). Antibody staining intensities were quantified using the MicroVigene v5 Software Package (Vigenetech). Signaling pathway activation was evaluated by staining the arrays with 156 antibodies against signaling endpoints, mainly phosphorylated and cleaved protein products. Before use for RPPA analysis, antibody specificity was confirmed by Western blot and analysis as previously described (Wulfkuhle et al., Clin Cancer Res. 2012; 18:6426-35).

[1] = *separate RPPA analysis, separate β actin probe

CCCCCCNC(=N)NC(=N)NCc1ccccc1 [HBB, N1-hexyl-N5-benzyl-biguanide]
fold change: 4EBP1 S65: 1.143 | fold change: 4EBP1 T37/46: 0.828 | fold change: 4EBP1 T70: 1.117 | fold change: A-Raf S299: 1.335 | fold change: AKT S473: 1.795 | fold change: AKT T308: 1.987 | fold change: ALK: 1.368 | fold change: ALK Y1604: 1.302 | fold change: AMPKalpha S485: 2.359 | fold change: AMPKbeta S108: 1.081 | fold change: ATF2 T69/71: 0.959 | fold change: ATM S1981: 1.438 | fold change: ATP CItrate Lyase S454: 1.229 | fold change: ATR S428: 1.345 | fold change: AXL: 1.199 | fold change: Acetyl-CoA Carboxylase S79: 1.295 | fold change: Actin beta: 1.000 | fold change: Aurora A T288/B T232/C T198: 1.651 | fold change: B-RAF: 1.341 | fold change: B-Raf S445: 1.392 | fold change: BAD: 1.198 | fold change: BAD S112: 1.355 | fold change: BAD S136: 1.550 | fold change: BCL-2: 1.315 | fold change: BIM: 1.211 | fold change: Bak: 1.254 | fold change: Bax: 1.132 | fold change: Bcl_xL: 1.275 | fold change: Beclin 1: 1.235 | fold change: CREB S133: 1.164 | fold change: Cl Caspase 3 D175: 1.484 | fold change: Cl Caspase 9 D315: 1.437 | fold change: Cl Caspase 9 D330: 1.492 | fold change: Cleaved PARP D214: 1.223 | fold change: Cofilin S3: 1.783 | fold change: CrkL Y207: 1.186 | fold change: Cyclin A: 1.513 | fold change: Cyclin B1 V152: 1.294 | fold change: Cyclin D1 (G124-326): 1.272 | fold change: Cyclin D1 T286: 1.693 | fold change: E-Cadherin: 1.903 | fold change: EGFR: 1.184 | fold change: EGFR Y992: 1.970 | fold change: EGFR Y1068: 1.557 | fold change: EGFR Y1148: 1.407 | fold change: EGFR Y1173: 1.388 | fold change: ER TOTAL: 1.304 | fold change: ER alpha S118: 1.293 | fold change: ERK 1-2 T202/Y204: 1.337 | fold change: ERK TOTAL: 1.242 | fold change: Elk S383: 1.926 | fold change: Ephrin A3 Y799/A4 Y799/A5 Y833: 1.553 | fold change: ErbB2/HER2 Y877: 1.283 | fold change: ErbB2/HER2 Y1248: 1.717 | fold change: ErbB3/HER3: 0.828 | fold change: ErbB3/HER3 Y1197: 1.363 | fold change: ErbB3/HER3 Y1289: 1.558 | fold change: FAK Y576/577: 1.291 | fold change: FKHR T24/FKHRL1 T32: 1.039 | fold change: FKHRL1 S253: 1.671 | fold change: FOXO1 S256: 1.338 | fold change: GRB2: 1.013 | fold change: GSK-3alpha/beta S21/9: 1.294 | fold change: HIF-1 alpha: 1.096 | fold change: HSP27 S82: 0.821 | fold change: HSP70: 1.429 | fold change: HSP90a T5/7: 1.555 | fold change: Heregulin: 0.654 | fold change: Histone H3 S28: 1.222 | fold change: IGF1R Y1135/36-IR Y1150/51: 1.118 | fold change: IGF-1R Y1131/IR Y1146: 1.596 | fold change: IGFBP7: 1.180 | fold change: IL6: 1.192 | fold change: IRS1: 0.996 | fold change: IkappaB-alpha S32/36: 1.317 | fold change: Insulin Receptor Beta: 1.219 | fold change: Jak2 Y1007: 1.647 | fold change: KI67: 1.120 | fold change: LC3B: 1.109 | fold change: LIMK1 T508/LIMK2 T505: 1.351 | fold change: LKB1 S428: 1.652 | fold change: MARCKS S152/156: 1.421 | fold change: MCSFR Y723: 1.215 | fold change: MDM2 S166: 1.189 | fold change: MEK 1/2 S217/221: 1.772 | fold change: Met Y1234/1235: 1.556 | fold change: Musashi: 1.320 | fold change: NF-kappaB p65 S536: 1.655 | fold change: PAK1 S199/204-PAK2 S192/197: 1.852 | fold change: PAK1 T423/PAK2 T402: 1.245 | fold change: PDGFR alpha Y754: 1.266 | fold change: PDGFR beta: 1.147 | fold change: PDGFR beta Y716: 0.981 | fold change: PDK1 S241: 1.118 | fold change: PDL1: 0.548 | fold change: PKC delta/theta S643/S676: 1.447 | fold change: PKC zeta/lambda T410/403: 0.971 | fold change: PLK1 T210: 1.301 | fold change: PTEN: 1.334 | fold change: PTEN S380: 1.440 | fold change: RAS TOTAL: 1.486 | fold change: Ras_GRF1: 1.237 | fold change: Rb S780: 1.516 | fold change: Ret Y905: 1.885 | fold change: Ros Y2274: 1.481 | fold change: S6 Ribosomal Protein S240/244: 0.457 | fold change: SAPK/JNK T183/Y185: 1.410 | fold change: SGK1 S78: 1.510 | fold change: SMAD2 S245/250/255: 1.425 | fold change: STAT3 S727: 1.302 | fold change: Shc Y317: 1.307 | fold change: Src Y527: 1.356 | fold change: Src family Y416: 0.804 | fold change: Stat 1 Y701: 1.092 | fold change: Stat3 Y705: 1.421 | fold change: Stat 5 Y694: 0.929 | fold change: TGF-beta: 1.188 | fold change: TNF alpha: 1.119 | fold change: Tuberin/TSC2 Y1571: 1.417 | fold change: VEGFR2 Y996: 1.205 | fold change: Vimentin: 1.021 | fold change: XIAP: 1.311 | fold change: c-Abl T735: 1.596 | fold change: c-Abl Y245: 1.215 | fold change: c-ErbB2/HER2: 1.184 | fold change: c-Kit Y703: 1.408 | fold change: c-Met TOTAL: 1.220 | fold change: c-Myc: 1.078 | fold change: c-Raf S338: 1.229 | fold change: eIF4G S1108: 1.471 | fold change: mTOR: 0.679 | fold change: mTOR S2448: 1.515 | fold change: p27 Kip1: 1.253 | fold change: p27 T187: 1.152 | fold change: p38 MAP Kinase T180/Y182: 1.075 | fold change: p53: 1.390 | fold change: p53 S15: 1.586 | fold change: p70S6 Kinase: 1.193 | fold change: p70 S6 Kinase S371: 1.621 | fold change: p70 S6 Kinase T389: 2.148 | fold change: p70 S6 Kinase T412: 1.352 | fold change: p90RSK T359/S363: 1.248 | fold change: pYAP S127: 1.022 | fold change: AMPK T172* [1]: 3.561 | fold change: AMPK total* [1]: 0.555 | fold change: PKM2 Y105* [1]: 1.403 | fold change: PKM2 total* [1]: 1.339
